Target: Hypoxia-inducible factor 1-alpha (Homo sapiens, UniProt Q16665)
Experiment: Inhibition of HIF1alpha transcriptional activity in human HeLa cells transfected with HRE-firefly luciferase and cytomegalovirus-promoter expressing Renilla luciferase incubated for 12 hrs under 1% O2 condition by dual luciferase reporter gene assay

Chain of Hypoxia-inducible factor 1-alpha (Q16665 whole entry): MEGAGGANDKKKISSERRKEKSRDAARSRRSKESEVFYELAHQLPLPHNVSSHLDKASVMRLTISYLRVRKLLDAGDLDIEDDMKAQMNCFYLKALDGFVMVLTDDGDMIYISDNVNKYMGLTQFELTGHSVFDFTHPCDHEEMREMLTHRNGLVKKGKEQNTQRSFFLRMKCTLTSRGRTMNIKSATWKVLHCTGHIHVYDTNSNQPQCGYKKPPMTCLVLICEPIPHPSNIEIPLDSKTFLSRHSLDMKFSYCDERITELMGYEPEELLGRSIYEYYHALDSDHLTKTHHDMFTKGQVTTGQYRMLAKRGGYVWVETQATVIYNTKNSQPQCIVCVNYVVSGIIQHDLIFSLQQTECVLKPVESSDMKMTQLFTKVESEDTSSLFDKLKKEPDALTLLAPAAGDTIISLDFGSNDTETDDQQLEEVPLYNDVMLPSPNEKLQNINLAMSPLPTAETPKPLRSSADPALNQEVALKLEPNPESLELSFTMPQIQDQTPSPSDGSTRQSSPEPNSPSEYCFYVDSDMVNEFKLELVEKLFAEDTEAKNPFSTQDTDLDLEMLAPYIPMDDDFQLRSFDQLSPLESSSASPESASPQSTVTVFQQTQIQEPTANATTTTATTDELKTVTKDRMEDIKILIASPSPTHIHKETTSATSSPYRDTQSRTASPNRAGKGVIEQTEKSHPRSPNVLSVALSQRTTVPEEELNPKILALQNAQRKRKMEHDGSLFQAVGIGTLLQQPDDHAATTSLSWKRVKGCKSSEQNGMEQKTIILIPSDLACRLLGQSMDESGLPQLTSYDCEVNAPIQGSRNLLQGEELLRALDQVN

First: Cn1ncc2c1C(=O)c1ccccc1-2
Second: O=C1c2ccccc2-c2cn[nH]c21
The IC50 of the first is lower: 8.8 µM for the first, greater than 30 µM for the second. The first is the more potent here.

Going from `Cc1nn(-c2ccccc2)c2c1-c1ccccc1C2=O` to `O=C1c2ccccc2-c2cnn(-c3ccccc3)c21`, the IC50 falls from 4.8 µM to 1.4 µM (3.4-fold). The second is the more potent here.

`COc1ccc(-n2ncc3c2C(=O)c2ccccc2-3)cc1` and `Cc1ccc(-n2ncc3c2C(=O)c2ccccc2-3)cc1` are within 1.5-fold of each other in IC50: 0.61 µM for the first, 0.79 µM for the second.

Compared with `O=C1c2ncccc2-c2cnn(-c3ccccc3)c21`, `O=C1c2ccccc2-c2cnn(-c3ccc(O)cc3)c21` is 26-fold lower in IC50: 10 µM for the first, 0.39 µM for the second. The second is the more potent here.

For `O=C1c2ccccc2-c2cnn(-c3ccc(C(F)(F)F)cc3)c21`, the IC50 was 23 µM.
